How the values were obtained:
RA patients = assay: Clinical study of CF101 in RA patients, ACR response; assay type: in vivo, human
Experimental: Blood was withdrawn from RA patients who were enrolled in a clinical study sponsored by Can-Fite BioPharma, in which the effect of CF101, a clinical grade IB-MECA, on arthritic patients was evaluated. The patients randomly received 0.1, 1.0 or 4.0 mg of CF101 twice daily. Blood was withdrawn at 2 time points: (a) after a washout period of 4-6 weeks from a previous treatment and before CF101 treatment was initiated—this was considered as baseline level; (b) after 3 months of treatment with CF101. Peripheral blood mononuclear cells were separated and protein was extracted as described above. In addition, C reactive protein (CRP) values, the number of tender and swollen joints, the physicians global assessment, the patient own assessment, the pain score and the disability score were recorded and the ACR score was calculated for each patient (ACR is a score that is calculated according to criteria established by the American College of Rheumatology, based on the aforementioned measures, to evaluate the effectiveness of drugs for treatment of RA; ACR 20, ACR 50 and ACR 70 respectively represent a 20%, 50% and 70% improvement in this score).

A3AR [1] = assay: A3AR level in peripheral blood mononuclear cells of RA patients by Western blot; assay type: in vivo, human
Experimental: Protein concentrations were determined using the Bio-Rad protein assay dye reagent. Equal amounts of the sample (50 μg) were separated by SDS-PAGE, using 12% polyacrylamide gels. […] Bands were recorded using BCIP/NBT color development kit (Promega, Madison, Wis., USA).

[2] = tested on: Adjuvant Induced Arthritis (AIA) rats; assay: Adjuvant induced arthritis (AIA) model in rats, clinical disease activity score; assay type: in vivo, rat; conditions: CF101 10 μg/kg orally twice daily from day 14 after immunization, MTX 1.5 mg/kg intraperitoneally every 3 days from day 14, vs vehicle
Experimental: (§1) Female Lewis rats, aged 8-12 weeks were obtained from Harlan Laboratories (Jerusalem, Israel). Rats were maintained on a standardized pelleted diet and supplied with tap water. Experiments were performed in accordance with the guidelines established by the Institutional Animal Care and Use Committee at Can-Fite BioPharma, Petah Tikva, Israel. The rats were injected subcutaneously (SC) at the tail base with 100 μl of suspension composed of incomplete Freund's adjuvant (IFA) with 10 mg/ml heat killed Mycobacterium tuberculosis, (Mt) H37Ra, (Difco, Detroit, USA). Each group contained 10 animals.
(§2) Treatment with IB-MECA (10 μg/kg) was initiated on day 14 after vaccination and was orally administered by gavage, twice daily. Another group was treated with Methotrexate (MTX) (1.5 mg/kg) intraperitoneally every 3 days, starting on day 14th after vaccination. The control group in each experiment received vehicle only (DMSO in a dilution corresponding to that of the drugs).
Clinical Disease Activity Score was assessed as follows: the animals were inspected every second day for clinical arthritis. […] The clinical score was calculated by adding the four individual legs' score. The inflammatory intensity was also determined in accordance with the increase in the rat hind paw's diameter, measured by caliper (Mitotoyo, Tokyo, Japan).

A3AR [3] = assay: A3AR protein expression level by Western blot in tissues of AIA rats; assay type: in vivo, rat
Experimental: as §1, §2
The hind paws were dissected above the ankle joint. The bony tissue was broken into pieces, snap frozen in liquid nitrogen and stored at −80° C. until use. To prepare a protein extract, RIPA buffer (containing 150 mM NaCl, 50 mM Tris, 1% NP40, 0.5% Deoxycholate and 0.1% SDS) was added to the paw tissue (4 ml/gr of tissue). The mixture was homogenized on ice with a polytron and centrifuged.
Synovial tissue was removed and synovial cells were separated by incubating the tissue in RPMI containing 1 mg/ml Collagenase IV and 0.1 mg/ml DNase with a vigorous shaking (200 rpm) at 37° C. for 30 min. The supernatant containing the synovial cells was collected and the undigested tissue was re-extracted. The supernatants from both extractions were combined and cells were washed with PBS. Protein extracts were prepared. […]
Western blot analysis (WB) of synovial, paw, spleen and lymph nodes were carried out according to the following protocol. […] Protein concentrations were determined using the Bio-Rad protein assay dye reagent. […] Bands were recorded using BCIP/NBT color development kit (Promega, Madison, Wis., USA).

[4] = out of 17 RA patients, 3 months of CF101

SMILES	responders with ACR 20 only response (RA patients; [4]) [patients]	responders with ACR 50 response (RA patients; [4]) [patients]	responders with ACR 70 response (RA patients; [4]) [patients]	non-responders (not even an ACR 20 response) (RA patients; out of 17 RA patients, 3 months of CF101 0.1, 1.0 or 4.0 mg twice daily) [patients]	other parameters, particularly number of swollen and tender joints, in patient no. 1517 (RA patients; single RA patient with no ACR response (CRP change below 0%), 3 months of CF101)	A3AR level in PBMNC of non-responders (A3AR [1]; after 3 months CF101 treatment vs baseline)	A3AR level in PBMNC of ACR 50 and ACR 70 responders (A3AR [1]; after 3 months CF101 treatment vs baseline (initial high level))	disease severity evaluated by the arthritis clinical score [2]	A3AR expression level in peripheral hematopoietic tissues (spleen and lymph node) (A3AR [3]; AIA rats treated with IB-MECA, low in naïve animals, high in AIA)	A3AR protein expression level in inflammatory tissues (paw & synovial) (A3AR [3]; AIA rats, upon IB-MECA treatment vs untreated AIA)	level of the A3AR in PBMNCs (A3AR [1]; 4 RA patients, prior to vs after onset of treatment with methotrexate)	A3AR expression profile in lymph nodes (LN) (A3AR [3]; AIA rats treated with MTX, compared with pattern seen with IB-MECA)
CNC(=O)[C@H]1O[C@@H](n2cnc3c(NCc4cccc(I)c4)ncnc32)[C@H](O)[C@@H]1O [CF101, N^6-(3-iodobenzyl)-adenosine-5′-N-methyluronamide]	4	5	3	5	very significant improvement	essentially no change	reduced	significant decrease	low expression	down-regulated		
CN(Cc1cnc2nc(N)nc(N)c2n1)c1ccc(C(=O)N[C@@H](CCC(=O)O)C(=O)O)cc1 [methotrexate, reference compound]								significant decrease			increase	a similar A3AR expression profile was observed

From patent US20130345163A1, “BIOLOGICAL MARKER FOR INFLAMMATION” (CAN-FITE BIOPHARMA LTD., priority 2004, published 2013)
